From patent US5500430A, “Amidic derivatives of glutamic, aspartic and 2-amino adipic acids, a process for preparing same, and anti-gastrin composition containing the derivatives” (Rotta Research Laboratorium S.p.A., priority 1990, dated 1996)
Where two headings read alike, the source gives them in different places. Each block holds one compound with its values, some of them ahead of it.

How the values were obtained:
[1] = target: T1, gastrin receptor sites on the cerebral cortex membranes of mice (Mus musculus, UniProt P56481); assay: Inhibition of the binding of pentagastrin to mouse cortical membranes
T1 construct: Mouse cortical tissue; from tissue; host or cells: mouse cerebral cortex membranes
T1 sequence (P56481 1-453): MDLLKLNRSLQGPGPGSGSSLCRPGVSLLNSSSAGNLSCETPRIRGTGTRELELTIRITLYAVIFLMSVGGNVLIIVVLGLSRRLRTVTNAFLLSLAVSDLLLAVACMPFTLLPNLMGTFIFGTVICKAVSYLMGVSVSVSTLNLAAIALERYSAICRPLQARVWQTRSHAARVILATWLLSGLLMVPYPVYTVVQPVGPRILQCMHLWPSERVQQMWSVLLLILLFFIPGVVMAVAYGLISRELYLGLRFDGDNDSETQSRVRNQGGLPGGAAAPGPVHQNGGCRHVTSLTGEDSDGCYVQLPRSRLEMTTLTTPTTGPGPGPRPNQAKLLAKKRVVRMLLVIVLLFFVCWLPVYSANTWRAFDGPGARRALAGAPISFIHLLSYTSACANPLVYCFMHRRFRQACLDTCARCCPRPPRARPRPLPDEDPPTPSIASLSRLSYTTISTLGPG
From the text: Tests on binding to cerebral cortex membranes of mice
The capacities of some of the compounds of the invention to inhibit the binding of pentagastrin to the gastrin receptor sites on the cerebral cortex membranes of mice was to be evaluated. Pentagastrin tritiate[beta-alanyl-3-3H(N)] was used as the ligand.
Mouse cortical tissue Was homogenised cold in 20 volumes of tris buffer (pH 7.7). After washing and centrifuging, the final pellet was resuspended in 20 volumes of binding buffer containing, inter alia, TRIS, BSA and Bacitracin. 0.4 ml of the membrane thus obtained were then incubated with a radioactive tracer and the compounds under test for 40 minutes at 37° C.
After the supernatant liquid had been removed by centrifuging, the radioactivity associated with the pellet was determined with a liquid scintillator (a beta-counter). The specific binding was the difference between the binding in the absence and in the presence of 10^-5M pentagastrin.

[2] = test system: guinea-pig gall bladder contracted with CCK-8; assay: Anticholecystokinin (anti-CCK) activity on guinea-pig gall bladders stimulated by CCK-8 in vitro; settings: CCK-8 concentration 10 ng/ml, Krebs, 32° C.
Experimental: Anticholecystokinin (anti-cc, K) activity
In order to confirm the hypothesis that the molecular conformations of the compounds of the invention are suitable to provide them with antagonistic activity towards CCK as well as towards gastrin, the anticontracturant activities of some of the compounds of the invention were tested on guinea-pig gall bladders stimulated by CCK-8 in vitro.
A longitudinal strip of guinea-pig gall bladder was placed in a bath for isolated organs in the presence of Krebs at a temperature of 32° C. and oxygenated continuously with an oxygen-CO2 mixture (95-5 V/V).
The isometric contractions were detected by means of a force transducer and recorded.
The gall bladder was contracted with the use of a concentration of 10 ng/ml of CCK-8; the antagonistic activities of the compounds towards the contracturant effect of the CCK was determined with the use of different concentrations, thus determining the IC50 values, that is, the concentration of the compound in mcg/ml which can antagonise the contracturant effect of CCK by 50%.

[3] = test system: gastric acid secretion induced by pentagastrin; assay: Antisecretive activity in conscious dogs carrying gastric fistulae; assay type: in vivo, dogs (beagles); settings: for ED50: Canis lupus familiaris, iv, read-out: ID50 (the source's name)
Experimental: Antisecretive activity in conscious dogs
Male beagles weighing about 10 Kg were used and carried gastric fistulae at the level of the greater curvature, connected near the antral region, steel cannulae 5 cm long and 2 cm wide being inserted for collecting the gastric juices externally. After a period of about one month to recover from the operation, and after suitable conditioning, the animals were treated with pentagastrin at a dose of 3 mcg/Kg/h. The Stimulant, dissolved in a physiological solution, was perfused into the femoral vein for 180 minutes at a rate of 1.9 ml/h. After perfusion for 60 minutes (the basal stimulation) the product under test, dissolved in a physiological solution (1 ml/Kg), was administered in a bolus into the contra-lateral vein and, at the same time, the perfusion of the stimulant continued for a further 120 minutes. The acid secretion was recorded continuously as a function of time.
The activity of the product was evaluated as the percentage reduction in the secreted acidity after the administration of the product compared with the base acidity measured during the first 60 minutes of collection during which only the pentagastrin was present, for each of the periods 0-60 and 60-120 minutes after the product had been administered in a bolus.
Different doses of the compounds (C-1 and C-5) tested were administered so that an ID50, that is the dose (in mg/Kg I.V.) capable of inhibiting the effect of the pentagastrin by 50% could be calculated.
The results obtained are given in the following table (Tab. 2) in which the % variations from the base (the mean ± standard deviations calculated on the values obtained from 4 animals) are given for the various doses administered under the stimulus of 3 mcg/Kg/h of pentagastrin, as well as the activities of the compounds, calculated as their ID50s, and the correlation coefficients of the regression lines calculated on the basis of the experimental data.

[4] = test system: gastric acid secretion induced by pentagastrin; assay: Antisecretive activity in anaesthetised rats (pentagastrin-stimulated gastric acid secretion); assay type: in vivo
Experimental: Antisecretive activity in anaesthetised rats
Antisecretive activity in rats was determined with the use of male animals each weighing about 200 g, anaesthetised with urethane. Gastric secretion was stimulated with pentagastrin. The method of K. S. Lai (Gut 5, (1964), 327-341) was used, slightly modified.
After tracheotomy, cannulae were inserted in the oesophagus and the duodenum. A tepid solution. (37° C.) of 0.25 mM NaOH was perfused and passed through the stomach by means of a peristaltic pump at a constant flow rate of 1 ml/minute. After stabilisation for 20 minutes, the stimulating agent, dissolved in a physiological solution, was perfused for 120 minutes at a dose of 30 mcg/Kg/h in a volume of 0.95 ml/hour. After perfusion for 60 minutes (the basal stimulation), the product under test was administered as an intravenous bolus (I.V.) and the perfusion of the stimulant continued for a further 60 minutes. Acid secretion was recorded continuously as a function of time.
The activity of the product was evaluated as the percentage reduction in the secreted acidity after the administration of the product compared with the base acidity measured during the first 60 minutes of collection during which only the pentagastrin was present.
Different doses of the antagonist compounds tested were administered so that an ID50, that is, the dose (in mg/Kg I.V.) capable of inhibiting the effect of pentagastrin by 50%, could be calculated.
The results thus obtained are illustrated in the following table (Table 1) in which the activities of the compounds are expressed as the ID50s under the stimulus of 30 mcg/Kg/h of pentagastrin.

[5] = test system: fundic and colic mucosae; settings: rats; cited from earlier work
[6] = test system: fundic mucosa; assay: Fundic mucosa hyperplasia induced by pentagastrin in mice; assay type: in vivo; settings: 21 days
From the text: (§1) Inhibitory effect on the rate of growth of tumorous colic cells induced by pentagastrin
(§2) Gastrin has a trophic effect on the digestive epithelium.
(§3) Upon the basis of this premise, it was wished to investigate whether the gastrin-specific antagonists of the invention could antagonise the growth of experimentally-induced gastrointestinal tumours.
(§4) Male mice weighing 20-25 g were inoculated subcutaneously in the interscapular region with a suspension of 8×10^4 tumour cells of a mouse colic adenocarcinoma.
(§5) After 21 days, the animals were killed and the fundic mucosa and the tumours were removed, weighed and extracted to determine the DNA.

[7] = test system: mouse colic adenocarcinoma; assay: Colic tumorous growth induced by pentagastrin in mice; assay type: in vivo; settings: 21 days
From the text: as §1, §2, §3, §4, §5

[8] = test system: transplantable mouse colic tumour; settings: Winsell et al., Surgical Forum, 33, 384 (1982); cited from earlier work
[9] = pentagastrin alone, 250 mcg/Kg twice a day

Activity relative to the corresponding S enantiomer (times more active) ([1]; R series vs S enantiomers (C1 vs C32)): about 50 times | IC50 ([1]; pentagastrin tritiate ligand, 40 minutes at 37° C., read-out: IC50, inhibition of the binding of pentagastrin): 0.47 µM | Central activity relative to C2 ([1]; vs C2): only one third as active as C2 centrally
Compound: O=C(O)CC[C@@H](NC(=O)c1cccc(Cl)c1)C(=O)N1CCC2(CCCC2)CC1 [Compound C1]
Anti-CCK activity IC50 [2]: 20 µg/mL | Variation % (Mean ± SD) from base (0-60 min) ([3]; 5 mg/Kg I.V., period 60-120 min): -18.2 ± 0.3% | Variation % (Mean ± SD) from base (0-60 min) ([3]; 5 mg/Kg I.V., period 120-180 min): -22.8 ± 16.7% | Variation % (Mean ± SD) from base (0-60 min) ([3]; 10 mg/Kg I.V., period 60-120 min): -38.9 ± 7.9% | Variation % (Mean ± SD) from base (0-60 min) ([3]; 10 mg/Kg I.V., period 120-180 min): -14.3 ± 8.5% | Variation % (Mean ± SD) from base (0-60 min) ([3]; 20 mg/Kg I.V., period 60-120 min): -49.5 ± 4.2% | Variation % (Mean ± SD) from base (0-60 min) ([3]; 20 mg/Kg I.V., period 120-180 min): -26.1 ± 6.4% | Variation % (Mean ± SD) from base (0-60 min) ([3]; 30 mg/Kg I.V., period 60-120 min): -61.1 ± 12.5% | Variation % (Mean ± SD) from base (0-60 min) ([3]; 30 mg/Kg I.V., period 120-180 min): -56.7 ± 19.5% | Variation % (Mean ± SD) from base (0-60 min) ([3]; 40 mg/Kg I.V., period 60-120 min): -63.4 ± 11.5% | Variation % (Mean ± SD) from base (0-60 min) ([3]; 40 mg/Kg I.V., period 120-180 min): -43.4 ± 10.3% | Variation % (Mean ± SD) from base (0-60 min) ([3]; 60 mg/Kg I.V., period 60-120 min): -74.2 ± 5.6% | Variation % (Mean ± SD) from base (0-60 min) ([3]; 60 mg/Kg I.V., period 120-180 min): -79.9 ± 1.6% | ED50 ([3]; 1 h, conscious dogs, I.V. bolus, period 60-120 min (first hour after administration)): 19.7 mg/kg | ED50 ([3]; 2 h, conscious dogs, I.V. bolus, period 120-180 min (second hour after administration)): 31.5 mg/kg | ID50 ([3]; conscious dogs, I.V. bolus, period 60-120 min (first hour after administration), 60 min): about 20 mg/Kg | Inhibition of gastric acid secretion induced by pentagastrin in dogs (in words) ([3]; conscious dogs, first hour after bolus): potent inhibitors of gastric acid secretion induced by pentagastrin in dogs | ED50 ([4]; Rattus norvegicus, iv, anaesthetised male rats, pentagastrin 30 mcg/Kg/h, I.V. bolus, IN with bound, read-out: Antagonistic activity (ID50) towards gastric acid secretion induced by pentagastrin): 20 mg/kg | Antigastrin activity (in words) ([4]; anaesthetised rats, pentagastrin 30 mcg/Kg/h): particularly favourable | Activity on the peripheral gastrin (gastric secretion) receptor relative to compound C2 (times more active) ([4]; rats, vs C2): about 1.5 times

Compound: CSCC[C@H](NC(=O)[C@H](Cc1c[nH]c2ccccc12)NC(=O)CCNC(=O)OC(C)(C)C)C(=O)N[C@@H](CC(=O)O)C(=O)N[C@@H](Cc1ccccc1)C(N)=O [Pentagastrin, pentagastrin, reference compound]
IC50 [1]: 0.0025 µM | Trophic effect of chronic administration [5]: causes hyperplasia of the fundic and colic mucosae | Effect on the fundic mucosa (in words) ([6]; mice): induces significant hyperplasia in the fundic mucosa | Fundic DNA, Mean ± SD [6, 9]: 0.330 ± 0.05 mg | Weight of the mucosa fundica, Mean ± SD [6, 9]: 32.0 ± 3.50 mg | Effect on colic tumour weight and DNA content (in words) ([7]; mice): a significant increase in the weight of the colic tumour and the DNA content | Tumorous DNA, Mean [7, 9]: 3.62 ± 0.50 mg | Weight of the colic tumor, Mean ± SD [7, 9]: 657.0 ± 97.7 mg

Compound: gastrin
Trophic effect of chronic administration [5]: causes hyperplasia of the fundic and colic mucosae | Effect on growth of a transplantable mouse colic tumour [8]: stimulates the growth of a transplantable mouse colic tumour
